How the values were obtained:
Type in all cases: biochemical
Human PKK [1] = biological target: T1, Human PKK (Homo sapiens (Human), UniProt P03952); assay: Inhibition of PKK (Ki), kinetic assay; conditions: 24° C., IC50 corrected for KM
Description: Measurements were performed in a kinetic interval every 2nd minute for 16 min using a Spectramax M5 (Molecular Devices) with the following settings of the wavelength excitation of 350 nm and wavelength emission of 450 nm. The number of the compound corresponds to the number of the Example in the experimental section.
The pIC50 values were then fitted using a four-parametric fitting procedure using GraphPad Prism (version 6; GraphPad Software, Inc.).
(§1) Where the IC50 is in molar and the KM value in mM.

[2] = biological target: PKK in kaolin activated human platelet poor plasma (Homo sapiens (Human), UniProt P03952); assay: Inhibition of PKK in kaolin activated human PPP; conditions: global fit over 25, 75, 250, 750 μg/mL kaolin
Description: Platelet poor plasma (PPP) obtained from human wholeblood, anticoagulated with Na-Citrat, was incubated with various concentrations of the test compound together with either 25, 75, 250, or 750 μg/mL kaolin in assay buffer for 20 min at 37° C. such that for each kaolin dose used a concentration response was obtained for the test compound.

Human PKK [3] = biological target: T1, Human PKK; assay: Inhibition of PKK, endpoint assay (human PKK); conditions: substrate H-Pro-Phe-Arg-AMC, 1 h room temperature
Description: Subsequently, PPACK II (Calbiochem) was added as a stop solution to achieve a final concentration of 1 μM and fluorescence was measured using an Envision Reader (PerkinElmer) with the wavelength excitation setting of 355 nm and the wavelength emission setting of 460 nm.

human TK1 = human TK1 (Homo sapiens (Human), UniProt P06870); assay: Inhibition of TK1 (Ki); conditions: column head prints IC50, text above the table says Ki values
Description: The ability of compounds of formula (I) to inhibit plasma kallikrein (PKK), Factor Xlla (FXIIa), Factor Xla (FXIa), Factor Xa (FXa), Factor Ila (alpha-thrombin; FIIa), plasmin, trypsin, tissue kallikrein 1 (TK1), Factor VIIa (FVIIa), or FVIIa complexed with Tissue Factor, phospholipids and CaCl2 (FVIIa/TF/PL/CaCl2) was determined using the following biochemical assays in assay buffer (100 mM Tris, 150 mM NaCL, adjusted to a pH of 7.8 with HCl, and containing 0.1% (w/v) BSA and 0.05% (v/v) Tween20) in the presence of 1% (v/v) DMSO: EVALUATION OF THE INHIBITION OF PKK USING AN ENDPOINT ASSAY Human PKK (0.01 U/mL; Enzyme Research Laboratories) or rat PKK (0.625 nM; produced in-house) was incubated for 1 h at room temperature with 0.10 μM fluorogenic substrate H-Pro-Phe-Arg-AMC (11295 from Bachem) and various concentrations of the test compound in assay buffer. Subsequently, PPACK II (Calbiochem) was added as a stop solution to achieve a final concentration of 1 μM and fluorescence was measured using an Envision Reader (PerkinElmer) with the wavelength excitation setting of 355 nm and the wavelength emission setting of 460 nm.
Prior to the assay, human TK1 (R&D Systems) was activated by incubation with human trypsin (Calbiochem) in a 1:10,000 ratio for 15 min at 37° C. For assaying TK1 inhibitory activity, activated TK1 (31.25 nM or 1 U/mL) was incubated at 24° C. with 0.1 mM fluorogenic substrate H-Pro-Phe-Arg-AMC (11295 from Bachem) and various concentrations of the test compound in assay buffer. Measurements were performed in a kinetic interval every 2nd minute for 16 min using a Spectramax M5 (Molecular Devices) with the following settings of the wavelength excitation of 350 nm and wavelength emission of 450 nm.
The average Vmax values for the time interval from 2 to 12 min after initiation of the assay (expressed as either delta OD/min for assays using a chromogenic substrate or delta RFU/min for assays using a fluorigenic substrate, respectively) were plotted versus the Log of the concentration in molar of the evaluated inhibitor compound. The pIC50 values were then fitted using a four-parametric fitting procedure using GraphPad Prism (version 6; GraphPad Software, Inc.). Respective Ki values were obtained by correction of the IC50 values for the respective KM value of the used substrate (see Table A for the obtained KM values of the used substrates) using the following formula: […]
as §1

T1 sequence (P03952 391-638): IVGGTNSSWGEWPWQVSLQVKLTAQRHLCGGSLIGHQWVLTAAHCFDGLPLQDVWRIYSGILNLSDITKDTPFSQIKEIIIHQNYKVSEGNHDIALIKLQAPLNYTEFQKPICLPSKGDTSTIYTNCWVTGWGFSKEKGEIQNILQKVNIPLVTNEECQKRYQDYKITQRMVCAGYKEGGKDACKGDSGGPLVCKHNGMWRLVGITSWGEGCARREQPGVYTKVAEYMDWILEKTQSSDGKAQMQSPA
T1 sequence (P03952 20-390 partner): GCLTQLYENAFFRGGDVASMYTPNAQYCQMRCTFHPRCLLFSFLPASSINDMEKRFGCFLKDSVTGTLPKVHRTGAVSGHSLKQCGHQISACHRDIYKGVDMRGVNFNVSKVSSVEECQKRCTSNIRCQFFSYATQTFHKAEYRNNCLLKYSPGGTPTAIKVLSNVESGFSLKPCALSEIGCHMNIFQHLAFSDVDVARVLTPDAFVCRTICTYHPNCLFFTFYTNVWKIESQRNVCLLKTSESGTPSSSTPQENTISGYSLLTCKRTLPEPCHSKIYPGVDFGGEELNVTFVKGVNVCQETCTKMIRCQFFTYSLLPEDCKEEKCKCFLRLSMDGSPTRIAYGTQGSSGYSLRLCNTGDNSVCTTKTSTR
Sequence of PKK in kaolin activated human platelet poor plasma (P03952 391-638): as the sequence (P03952 391-638) above
Sequence of PKK in kaolin activated human platelet poor plasma (P03952 20-390 partner): as the sequence (P03952 20-390 partner) above
Sequence of human TK1 (P06870 25-262): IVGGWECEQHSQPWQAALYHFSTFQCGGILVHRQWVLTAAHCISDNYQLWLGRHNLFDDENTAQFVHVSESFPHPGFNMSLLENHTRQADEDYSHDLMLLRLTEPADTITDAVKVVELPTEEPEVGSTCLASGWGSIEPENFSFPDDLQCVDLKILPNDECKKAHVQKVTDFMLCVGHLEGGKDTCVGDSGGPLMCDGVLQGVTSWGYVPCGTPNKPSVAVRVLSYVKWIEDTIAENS

| SMILES | Ki (Human PKK [1]) [nM] | IC90 [2] [nM] | IC50 (Human PKK [3]) [nM] | IC50 (human TK1) [nM] |
| --- | --- | --- | --- | --- |
| Cc1nc(N2CC3CC3C2)ccc1Cn1cc(C(=O)N[C@@H]2CCc3c2n[nH]c3C)nc1C1CC1 (stereo partly drawn) [Example 96, 1-[(6-{3-Azabicyclo[3.1.0]hexan-3-yl}-2-methyl-pyridin-3-yl)methyl]-2-cyclopropyl-N-[(6R)-3-methyl-2H,4H,5H,6H-cyclopenta[c]pyrazol-6-yl]-1H-imidazole-4-carboxamide] | 1 | 781 | 2 | > 10000 |
| Cc1nc(N2C[C@@H]3[C@H](CO)[C@@H]3C2)ccc1Cn1cnc(C(=O)N[C@@H]2CCc3c2n[nH]c3C)c1 (stereo in doubt) [Example 99, 1-({6-[(1R,5S,6S)-6-(Hydroxymethyl)-3-aza-bicyclo[3.1.0]hexan-3-yl]-2-methylpyridin-3-yl}-methyl)-N-[(6R)-3-methyl-2H,4H,5H,6H-cyclo-penta[c]pyrazol-6-yl]-1H-imidazole-4-carboxamide] | 1 | 388 | 1 | > 10000 |
| Cc1nc(N2CC3CC3C2)ccc1Cc1csc(C(=O)N[C@@H]2CCc3c(C)n[nH]c32)c1 (stereo partly drawn) [Example 6, 4-[(6-{3-Azabicyclo[3.1.0]hexan-3-yl}-2-methylpyridin-3-yl)methyl]-N-[(6R)-3-methyl-1H,4H,5H,6H-cyclopenta[c]pyrazol-6-yl]thiophene-2-carboxamide] | 0.5 | 291 | 0.7 | > 10000 |
| Cc1nc(N2CC3CC3C2)ncc1Cn1cc(C(=O)N[C@@H]2CCc3c(C)n[nH]c32)nn1 (stereo partly drawn) [Example 87, 1-[(2-{3-Azabicyclo[3.1.0]hexan-3-yl}-4-methylpyrimidin-5-yl)methyl]-N-[(6R)-3-methyl-1H,4H,5H,6H-cyclopenta[c]pyrazol-6-yl]-1H-1,2,3-triazole-4-carboxamide] | 1 | 1170 | 2 | > 10000 |
| Cc1nc(N2CC3C(C2)C3(F)F)ccc1Cn1cc(C(=O)N[C@@H]2CCc3c(C)n[nH]c32)cn1 (stereo partly drawn) [Example 5, 1-[(6-{6,6-Difluoro-3-azabicyclo[3.1.0]hexan-3-yl}-2-methylpyridin-3-yl)methyl]-N-[(6R)-3-methyl-1H,4H,5H,6H-cyclopenta[c]pyrazol-6-yl]-1H-pyrazole-4-carboxamide] | 0.3 | 241 | 0.6 | > 10000 |
| Cc1nc(N2CC3CC3C2)ccc1Cn1cc(C(=O)N[C@@H]2CCc3c2n[nH]c3C)nc1Cl (stereo partly drawn) [Example 102, 1-[(6-{3-Azabicyclo[3.1.0]hexan-3-yl}-2-methyl-pyridin-3-yl)methyl]-2-chloro-N-[(6R)-3-methyl-2H,4H,5H,6H-cyclopenta[c]pyrazol-6-yl]-1H-imidazole-4-carboxamide] | 4 | 5480 | 1 | > 10000 |
| Cc1nc(N2CC3CC3C2)ccc1Cc1c[nH]c(C(=O)N[C@@H]2CCc3c(C)n[nH]c32)c1 (stereo partly drawn) [Example 7, 4-[(6-{3-Azabicyclo[3.1.0]hexan-3-yl}-2-methylpyridin-3-yl)methyl]-N-[(6R)-3-methyl-1H,4H,5H,6H-cyclopenta[c]pyrazol-6-yl]-1H-pyrrole-2-carboxamide] | 0.7 | 342 | 1 | > 10000 |
| Cc1nc(N2CC3CC3C2)ccc1Cn1cc(C(=O)N[C@@H]2CCc3c2n[nH]c3C)nc1C (stereo partly drawn) [Example 97, 1-[(6-(3-Azabicyclo[3.1.0]hexan-3-yl}-2-methyl-pyridin-3-yl)methyl]-2-methyl-N-[(6R)-3-methyl-2H,4H,5H,6H-cyclopenta[c]pyrazol-6-yl]-1H-imidazole-4-carboxamide] | 1 | 302 | 2 | > 10000 |
| Cc1nc(N2CC(C)(C)C2)ccc1Cn1cc(C(=O)N[C@@H]2CCc3c2n[nH]c3C)cn1 [Example 67, 1-{[6-(3,3-Dimethylazetidin-1-yl)-2-methylpyridin-3-yl]methyl}-N-[(6R)-3-methyl-2H,4H,5H,6H-cyclopenta[c]pyrazol-6-yl]-1H-pyrazole-4-carboxamide] | 1 | 545 | 2 | – |
| Cc1nc(N2CC3(CC3)C2)ccc1Cn1cc(C(=O)N[C@@H]2CCc3c(C)n[nH]c32)cn1 [Example 11] | – | 598 | 1 | – |
| Cc1nc(N2CC3CC3C2)ncc1Cn1cc(C(=O)N[C@@H]2CCc3c(C)n[nH]c32)c2cncnc21 (stereo partly drawn) [Example 23, 7-[(2-{3-Azabicyclo[3.1.0]hexan-3-yl}-4-methyl-pyrimidin-5-yl)methyl]-N-[(6R)-3-methyl-1H,4H,5H,6H-cyclopenta[c]pyrazol-6-yl]-7H-pyrrolo[2,3-d]pyrimidine-5-carboxamide] | 0.3 | – | 2 | > 10000 |
| Cc1nc(N2CC3CC3C2)ccc1Cn1cc(C(=O)N[C@@H]2CCc3c(C)n[nH]c32)c2cncnc21 (stereo partly drawn) [Example 17, 7-[(6-{3-Azabicyclo[3.1.0]hexan-3-yl}-2-methyl-pyridin-3-yl)methyl]-N-[(6R)-3-methyl-1H,4H,5H,6H-cylcopenta[c]pyrazol-6-yl]-7H-pyrrolo[2,3-d]pyrimidine-5-carboxamide] | 0.1 | – | 0.9 | > 10000 |
| Cc1nc(N2CC3CC3C2)ccc1Cn1cc(C(=O)N[C@@H]2CCc3c(C)n[nH]c32)c(C(F)F)n1 (stereo partly drawn) [Example 14, 1-[(6-{3-Azabicyclo[3.1.0]hexan-3-yl}-2-methyl-pyridin-3-y)methyl]-3-(difluoromethyl)-N-[(6R)-3-methyl-1H,4H,5H,6H-cyclopenta[c]pyrazol-6-yl]-1H-pyrazole-4-carboxamide] | 0.1 | – | 0.5 | > 10000 |
| COCc1nn(Cc2ccc(N3CC4(CC4)C3)nc2C)cc1C(=O)N[C@@H]1CCc2c(C)n[nH]c21 [Example 22, 1-[(6-{5-Azaspiro[2.3]hexan-5-yl}-2-methylpyridin-3-yl)methyl]-3-(methoxymethyl)-N-[(6R)-3-methyl-1H,4H,5H,6H-cyclopenta[c]pyrazol-6-yl]-1H-pyrazole-4-carboxamide] | 0.1 | – | 2 | > 10000 |
| Cc1nc(N2CC3C(C2)C3(F)F)ccc1Cn1cc(C(=O)N[C@@H]2CCc3c(C)n[nH]c32)c2cncnc21 (stereo partly drawn) [Example 13, 7-[(6-{6,6-Difluoro-3-azabicyclo[3.1.0]hexan-3-yl}-2-methylpyridin-3-yl)methyl]-N-[(6R)-3-methyl-1H,4H,5H,6H-cyclopenta[c]pyrazol-6-yl]-7H-pyrrolo[2,3-d]pyrimidine-5-carboxamide] | 0.1 | – | 0.5 | > 10000 |
| COCc1nn(Cc2ccc(N3CC4CC4C3)nc2C)cc1C(=O)N[C@@H]1CCc2c(C)n[nH]c21 (stereo partly drawn) [Example 16, 1-[(6-{3-Azabicyclo[3.1.0]hexan-3-yl}-2-methyl-pyridin-3-yl)methyl]-3-(methoxymethyl)-N-[(6R)-3-methyl-1H,4H,5H,6H-cyclopenta[c]pyrazol-6-yl]-1H-pyrazole-4-carboxamide] | 0.1 | – | 0.9 | > 10000 |
| Cc1nc(N2CC3C(C2)C3(F)F)ncc1Cn1cc(C(=O)N[C@@H]2CCc3c(C)n[nH]c32)c2cncnc21 (stereo partly drawn) [Example 21, 7-[(2-{6,6-Difluoro-3-azabicyclo[3.1.0]hexan-3-yl}-4-methylpyrimidin-5-yl)methyl]-N-[(6R)-3-methyl-1H,4H,5H,6H-cyclopenta[c]pyrazol-6-yl]-7H-pyrrolo[2,3-d]pyrimidine-5-carboxamide] | 0.1 | – | 1 | > 10000 |

From patent publication US10695334B2, “Heteroaromatic carboxamide derivatives as plasma kallikrein inhibitors” (Boehringer Ingelheim International GmbH, priority 2018, dated 2020)
